PubChem BioAssay (NCI)
Values joined by “and” are separate entries in the source; they are usually repeats but may differ in a detail not shown here. Identical values can stand only once.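 Grown in 96-well plates, cells were treated for 48 hours with each compound at five concentrations. Insufficient inhibition: endpoint recorded as highest concentration tested. The concentration for 50% growth inhibition is given as GI50. TGI denotes the concentration required for complete inhibition of growth.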 Peptide text beside a SMILES is read from it. * marks the point of attachment. X34 = O=C(c1ccc(-c2ccc(Cl)cc2Cl)o1)*

Columns and labels:
Experiment in all cases: inhibition of tumour cell growth, NCI panel, 48 h
[1] = system: NCI/ADR-RES ovarian
[2] = system: CAKI-1 renal
[3] = system: OVCAR-8 ovarian
[4] = system: MDA-MB-231 breast
[5] = system: SK-MEL-28 melanoma
[6] = system: SF-295 CNS
[7] = system: TK-10 renal
[8] = system: BT-549 breast
[9] = system: NCI-H23 lung
[10] = system: ACHN renal
[11] = system: SK-MEL-2 melanoma

CC1=C(SCCO)C(=O)c2ccccc2C1=O
TGI [1]: 31.9 µM | TGI [2]: 28.8 µM | TGI [3]: 28.6 µM | TGI [4]: 27.4 µM | TGI [5]: 25.9 µM | TGI [6]: 32.8 µM | TGI [7]: 30.4 µM | TGI [8]: 31.7 µM | TGI [9]: 30.4 µM | TGI [10]: 13 µM | TGI [11]: 24.5 µM

CCCCC(=O)c1c(O)ccc2c(C)cc(=O)oc12
TGI [1]: > 100 µM | TGI [2]: > 100 µM | TGI [3]: > 100 µM | TGI [4]: > 100 µM | TGI [5]: > 100 µM | TGI [6]: > 100 µM | TGI [7]: > 100 µM | TGI [8]: > 100 µM | TGI [9]: > 100 µM | TGI [10]: > 100 µM | TGI [11]: > 100 µM

CC[C@@]1(O)C[C@H](OC2CC(N(C)C)C(OC3CC(O)C(OC4CCC(=O)C(C)O4)C(C)O3)C(C)O2)c2c(cc3c(c2O)C(=O)c2c(O)cccc2C3=O)C1C(=O)OC (some centres undefined)
TGI [1]: 0.673 µM | TGI [2]: 4.09 µM | TGI [3]: 0.679 µM and 4.49 µM | TGI [4]: 0.058 µM | TGI [5]: 0.215 µM and 0.806 µM | TGI [6]: 1.1 µM and 1.89 µM | TGI [9]: 0.635 µM | TGI [10]: 2.15 µM | TGI [11]: 0.0581 µM and 0.425 µM

C1=CC=C2NCCc3cccc(c3)CCNC3=CC=CC=CC3=NCCCCCCN=C2C=C1
TGI [2]: > 100 µM | TGI [3]: 61.6 µM | TGI [6]: 49.6 µM | TGI [9]: 48.3 µM | TGI [10]: > 100 µM | TGI [11]: 79.8 µM

[C-]#[N+]C(=C\c1ccc(O)cc1)/C(=C/c1ccc(O)cc1)[N+]#[C-]
TGI [1]: > 24.5 µM | TGI [2]: 5.63 µM | TGI [3]: > 20.5 µM | TGI [4]: 6.71 µM | TGI [5]: > 22.4 µM | TGI [6]: > 100 µM | TGI [7]: > 100 µM | TGI [8]: > 23.1 µM | TGI [9]: 5.93 µM | TGI [10]: > 100 µM

N#Cc1ccc([N+](=O)[O-])cc1NC(N)=S
TGI [2]: > 100 µM | TGI [3]: > 100 µM | TGI [5]: > 100 µM | TGI [6]: > 100 µM | TGI [11]: > 100 µM

O=S(=O)(O)c1cc(S(=O)(=O)O)c2c(N=Nc3ccc(S(=O)(=O)O)c4ccccc34)c(O)ccc2c1
TGI [1]: > 100 µM | TGI [2]: > 100 µM | TGI [3]: > 100 µM | TGI [4]: > 100 µM | TGI [5]: > 100 µM | TGI [6]: > 100 µM | TGI [7]: > 100 µM | TGI [8]: > 100 µM | TGI [9]: > 100 µM | TGI [10]: > 100 µM | TGI [11]: > 100 µM

CC(=O)OCCCCN1C(=O)CSc2ccccc21
TGI [2]: > 100 µM | TGI [5]: > 100 µM | TGI [6]: > 100 µM | TGI [7]: > 100 µM | TGI [8]: > 100 µM | TGI [10]: > 100 µM | TGI [11]: > 100 µM

CC(C)C1=CC2=CC[C@@H]3[C@](C)(CCC[C@@]3(C)C(=O)O)[C@H]2CC1
TGI [2]: > 100 µM | TGI [3]: > 100 µM | TGI [5]: > 100 µM | TGI [6]: > 100 µM | TGI [7]: > 100 µM | TGI [9]: > 89.9 µM | TGI [10]: > 100 µM | TGI [11]: > 78.9 µM

CN(C)c1ccc(C2CC(=O)CC(c3ccc(N(C)C)cc3)C23C(=O)NC(=S)NC3=O)cc1 (centres undefined)
TGI [1]: > 100 µM | TGI [2]: > 100 µM | TGI [4]: > 100 µM | TGI [5]: > 100 µM | TGI [6]: > 100 µM | TGI [7]: > 100 µM | TGI [9]: > 100 µM | TGI [10]: > 100 µM | TGI [11]: > 100 µM

C=CCn1c(=O)c(Br)nn(CCOCP(=O)(OCC)OCC)c1=O
TGI [1]: > 100 µM | TGI [2]: > 100 µM | TGI [3]: > 100 µM | TGI [4]: > 100 µM | TGI [5]: > 100 µM | TGI [9]: > 100 µM | TGI [10]: > 100 µM | TGI [11]: > 100 µM

COc1cc2c3c(n(CCCn4cncn4)c(=O)c2cc1OC)-c1cc2c(cc1C3=O)OCO2
GI50 [1]: 1.55 µM | TGI [1]: > 100 µM | TGI [2]: > 100 µM | TGI [3]: > 100 µM | GI50 [4]: 80.9 µM | TGI [4]: > 100 µM | GI50 [5]: > 100 µM | TGI [5]: > 100 µM | GI50 [6]: < 0.01 µM | TGI [6]: > 100 µM | GI50 [7]: 35.2 µM | TGI [7]: > 88.1 µM | GI50 [8]: 31.1 µM | TGI [8]: > 100 µM | GI50 [9]: 0.0906 µM | TGI [9]: 57.5 µM | GI50 [10]: < 0.01 µM | TGI [10]: 2.56 µM | GI50 [11]: > 100 µM | TGI [11]: > 100 µM

COc1ccc(C(=O)c2nc3ccccc3nc2N2CCN(c3ccccc3)CC2)cc1OC
TGI [1]: > 100 µM | TGI [2]: > 100 µM | TGI [3]: > 100 µM | TGI [5]: > 100 µM | TGI [6]: > 100 µM | TGI [7]: > 100 µM | TGI [9]: > 100 µM | TGI [10]: > 100 µM | TGI [11]: > 100 µM

COC(=O)C(CC(C)C)NC(=O)C(Cc1ccccc1)NC(=O)C1CCCN1C(=O)C(CO)NC(=O)c1ccc(-c2ccc(Cl)cc2Cl)o1 (centres undefined) (X34-SPFL-OMe; configuration not given here)
TGI [1]: 92.8 µM | TGI [2]: > 100 µM | TGI [3]: > 100 µM | TGI [4]: 32.3 µM | TGI [5]: > 100 µM | TGI [6]: 46.5 µM | TGI [7]: 67.5 µM | TGI [8]: 75.7 µM | TGI [9]: 97.6 µM | TGI [10]: > 100 µM | TGI [11]: 33.7 µM

COc1nc2ccc(CNc3ccc(C(=O)NC(CCC(=O)O)C(=O)O)cc3)cc2nc1OC (centres undefined)
TGI [1]: > 100 µM | TGI [3]: > 100 µM | TGI [4]: > 100 µM | TGI [5]: > 100 µM | TGI [6]: > 100 µM | TGI [7]: > 100 µM | TGI [8]: > 100 µM | TGI [9]: > 100 µM | TGI [10]: > 100 µM | TGI [11]: > 100 µM

O=Cc1ccccc1CCn1c(=O)c2cc3c(=O)n(CCc4ccccc4C=O)c(=O)c3cc2c1=O
TGI [3]: > 100 µM | TGI [5]: > 100 µM | TGI [6]: > 100 µM | TGI [7]: > 100 µM | TGI [9]: > 100 µM | TGI [10]: > 100 µM | TGI [11]: > 100 µM

CN1c2c(nc(N)[nH]c2=O)NCC1CCNc1ccc(C(=O)NC(CCC(=O)O)C(=O)O)cc1 (centres undefined)
TGI [1]: 3810 µM | TGI [2]: 1290 µM | TGI [3]: 2640 µM | TGI [4]: 3050 µM | TGI [5]: 2290 µM | TGI [6]: 2260 µM | TGI [7]: 2500 µM | TGI [8]: 2750 µM | TGI [9]: 3630 µM | TGI [10]: 2000 µM | TGI [11]: 3050 µM

O=c1oc2cc(O)ccc2c2oc3cc(O)ccc3c12
TGI [1]: > 125 µM | TGI [2]: > 107 µM | TGI [3]: > 125 µM | TGI [5]: > 125 µM | TGI [6]: > 125 µM | TGI [9]: > 125 µM | TGI [11]: > 125 µM

CC(=O)OC12CC[N+]3(C)CCCCC3C1=Nc1ccccc12 (centres undefined)
TGI [1]: > 100 µM | TGI [2]: > 100 µM | TGI [3]: > 100 µM | TGI [4]: > 100 µM | TGI [5]: > 100 µM | TGI [6]: > 100 µM | TGI [7]: > 100 µM | TGI [8]: > 100 µM | TGI [9]: > 100 µM | TGI [10]: > 100 µM | TGI [11]: > 100 µM

Nc1nc(SCCNC(=O)CCc2ccc(O)c(I)c2)nc2c1ncn2C1OC(CO)C(O)C1O (centres undefined)
TGI [3]: > 100 µM | TGI [5]: > 100 µM | TGI [6]: > 100 µM | TGI [7]: > 100 µM | TGI [9]: > 100 µM | TGI [10]: > 100 µM | TGI [11]: > 100 µM

CCOc1ccccc1Nc1ccc(N)cc1S(=O)(=O)O
TGI [1]: > 100 µM | TGI [2]: > 100 µM | TGI [4]: > 100 µM | TGI [5]: > 100 µM | TGI [6]: > 100 µM | TGI [7]: > 100 µM | TGI [8]: > 100 µM | TGI [9]: > 100 µM | TGI [10]: > 100 µM | TGI [11]: > 100 µM

CC[C@@H]1CSC(/C=C/C2OC3OC(C)(C)OC3C3OC(C)(C)OC23)=N1 (some centres undefined)
TGI [1]: 95.7 µM | TGI [2]: 28.6 µM | TGI [3]: 23.8 µM | TGI [4]: 25.7 µM | TGI [5]: 34.7 µM | TGI [6]: 46.6 µM | TGI [7]: 14.6 µM | TGI [8]: 13.4 µM | TGI [9]: 23.1 µM | TGI [10]: 21.2 µM | TGI [11]: 29.8 µM
